Source: patent US8273718B2, “Composition for prevention or treatment of bone metabolism disorder comprising D-pinitol as an active ingredient” (Solgent Co., priority 2007, dated 2012)

How the values were obtained:
Raw264.7 cells [1] = test: Cytotoxicity of D-pinitol on Raw264.7 cells (cell number count); assay type: cell-based; settings: 0-50 mM, cell number counted for 3 days at 24 hrs intervals; up to maximum 50 mM
Protocol: To verify the cytotoxicity of D-pinitol to Raw264.7 cell, Raw264.7 cells were grown on 96-well plate until 0.5×10^3 cells/200 μl. Cells were cultured for 3 days while treating with D-pinitol at concentrations of 1, 3.5, 7, 12.5, 25 and 50 mM respectively. Cell number increased during 3 days of culture was counted to determine the cytotoxicity of added compounds.
The present inventors examined the cytotoxicity of D-pinitol at various concentrations. Influence of D-pinitol to cell proliferation was examined by treating Raw264.7 cells with various concentrations of D-pinitol. Osteoclast progenitor cell line, Raw264.7 cells were cultured and treated with D-pinitol in a range of 0-50 mM concentration. The number of survived cells was counted for 3 days at 24 hrs intervals.

[2] = system: bone marrow-derived hematopoietic stem cells; test: Cytotoxicity of D-pinitol on bone marrow hematopoietic stem cells (CCK8); assay type: cell-based, mouse
Protocol: To investigate the cytotoxicity of D-pinitol to a bone marrow cell, bone marrow cells were adjusted to 1.0×10^5 cells/200 μl on 96-well plate and co-cultured with 50 ng/ml of M-CSF. Then, cultured cells were grown for 4 days while treating with D-pinitol at concentrations of 1, 3.5, 7, 12.5, 25 and 50 mM respectively. Cytotoxicity was measured using CCK8 kit (Cell Counting Kit-8, Dojindo, Japan). 10% CCK8 solution was added to culture solutions according to each culture time and incubated for 2 hrs at 37° C. After culturing, an absorbance was measured at 450 nm using Microplate reader (Bio-Rad).
To extract mouse bone marrow cells, thighbone and shinbone of male C57BL/6 mouse at 3-4 weeks of age were aseptically enucleated and their soft tissues were eliminated. Both end of long bone was cut in extracted bone tissues and then bone marrow cells were collected by injecting α-MEM/10% FBS into bone marrow cavity at one end using a 26G injection syringe. Collected bone marrow cells were subjected to 5 ng/ml of M-CSF and incubated for 16 hrs. Unattached cells on plate bottom were harvested.
The instant inventors examined the cytotoxicity of D-pinitol on hematopoietic stem cells. […] After that, the proliferation-induced cells were treated with D-pinitol at a range of 0-50 mM and the effect of D-pinitol on cell proliferation was determined by measuring CCK8 enzyme activity. […]

Raw264.7 cells [3] = test: Osteoclastogenesis of Raw264.7 cells, TRAP staining; assay type: cell-based
Protocol: Raw264.7 cells were cultured in α-MEM (α-minimal essential medium) containing 10% FBS (fetal bovine serum). In the experiment of examining osteoclastogenesis, cells were adjusted to 2.0×10^3 cells/200 μl on 96-well plate and incubated with 200 ng/ml of sRANKL. TRAP (tartrate resistant acid phophatase) staining and TRAP solution assay were carried out at forth day after culturing cells for 3 days with treatment of D-pinitol at concentrations of 1, 3.5, 7, 12.5, 25 and 50 mM respectively. Cells were fixed for TRAP staining and TRAP solution assay. TARP positive multinuclear (more than 3 nuclei) cells were counted as an osteoclast-like cell. Cells were observed using Leica DM IRM microscope. For cytochemical staining of TRAP positive cell, medium was removed. After that, 100 μl of 10% formalin was added to cells and incubated for 10 min at room temperature. 100 μl of methanol/acetone was added and incubated for 1 min at room temperature. Cells were stained with 10 ml of TRAP buffer (Tris-HCl, pH 4.5, EDTA), naphthol AS phosphate (substrate, Sigma #N-4875) and 5 mg of Fast Red Violet dye (Sigma, F-1625). 1 mg of naphthol AS phosphate dissolved in […] of N, N-dimethyl formide (DMF, Sigma #319937) was used. The reaction was performed for 10-30 min and then red color was observed. Where red color is clearly observed, it was washed with flowing water and dried. […] Raw264.7 cell line was treated with 200 ng/ml of RankL for 4 days. […] To quantitate inhibitory activity of D-pinitol in osteoclastogenesis of Raw264.7 cells, multinucleate cell number was measured via TRAP staining according to various treatment concentration of D-pinitol. […] Therefore, it could be understood that D-pinitol was a substance to inhibit osteoclastogenesis of Raw264.7 cell. D-pinitol inhibited osteoclastogenesis almost 100% at a concentration of 50 mM.

Raw264.7 cells [4] = test: Osteoclastogenesis of Raw264.7 cells, TRAP solution assay; assay type: cell-based; settings: RankL
Protocol: Raw264.7 cells were cultured in α-MEM (α-minimal essential medium) containing 10% FBS (fetal bovine serum). In the experiment of examining osteoclastogenesis, cells were adjusted to 2.0×10^3 cells/200 μl on 96-well plate and incubated with 200 ng/ml of sRANKL. TRAP (tartrate resistant acid phophatase) staining and TRAP solution assay were carried out at forth day after culturing cells for 3 days with treatment of D-pinitol at concentrations of 1, 3.5, 7, 12.5, 25 and 50 mM respectively. Cells were fixed for TRAP staining and TRAP solution assay. TARP positive multinuclear (more than 3 nuclei) cells were counted as an osteoclast-like cell. Cells were observed using Leica DM IRM microscope. TRAP solution assay of TRAP positive cells were carried out according to the following method. Medium was removed, 100 μl of 10% formalin was added and incubated for 10 min at room temperature. After 100 μl of methanol/acetone was added, incubated for 1 min at room temperature, and then dried. TRAP substrate solution comprising a tablet of pNPP (p-nitrophenylphosphate) dissolved in 20 ml of TRAP buffer (pH 5.2) was added into and incubated for 20-30 min at 37° C. 100 μl of TRAP substrate solution was transferred to a new 96-well plate in which 50 μl of 1N NaOH was contained. Finally, OD (optical density) value was measured at 405 nm. […]

[5] = system: bone marrow-derived osteoclast; test: Differentiation of bone marrow-derived osteoclast, TRAP staining; assay type: cell-based, mouse
Protocol: For cytochemical staining of TRAP positive cell, medium was removed. After that, 100 μl of 10% formalin was added to cells and incubated for 10 min at room temperature. 100 μl of methanol/acetone was added and incubated for 1 min at room temperature. Cells were stained with 10 ml of TRAP buffer (Tris-HCl, pH 4.5, EDTA), naphthol AS phosphate (substrate, Sigma #N-4875) and 5 mg of Fast Red Violet dye (Sigma, F-1625). 1 mg of naphthol AS phosphate dissolved in […] of N, N-dimethyl formide (DMF, Sigma #319937) was used. The reaction was performed for 10-30 min and then red color was observed. Where red color is clearly observed, it was washed with flowing water and dried. […] To extract mouse bone marrow cells, thighbone and shinbone of male C57BL/6 mouse at 3-4 weeks of age were aseptically enucleated and their soft tissues were eliminated. Both end of long bone was cut in extracted bone tissues and then bone marrow cells were collected by injecting α-MEM/10% FBS into bone marrow cavity at one end using a 26G injection syringe. Collected bone marrow cells were subjected to 5 ng/ml of M-CSF and incubated for 16 hrs. Unattached cells on plate bottom were harvested. For the induction of the differentiation of bone marrow-derived osteoclast, bone marrow cells of 1.0×10^5 cells per well were cultured with α-MEM/10% FBS in the presence of 200 ng/ml of sRANKL and 50 ng/ml of M-CSF. D-pinitol was added to media at various concentrations during culture. Three experiments were carried out at each concentration and media were replaced at third day after grown in complete media containing sRANKL, M-CSF and D-pinitol. […] To investigate the effect of D-pinitol on the osteoclast differentiation from bone marrow-derived monocyte, hematopoietic stem cells were extracted from bone marrow and activated for 1 day by M-CSF (5 ng/ml), resulting in induction of the differentiation into mononuclear cells. […] To quantitate the effect of D-pinitol in osteoclatogenesis of bone marrow-derived monocyte, osteoclast cell number within sample was measured using TRAP staining. […]

[6] = system: bone marrow-derived osteoclast; test: Differentiation of bone marrow-derived osteoclast, TRAP solution assay; assay type: cell-based, mouse
Protocol: TRAP solution assay of TRAP positive cells were carried out according to the following method. Medium was removed, 100 μl of 10% formalin was added and incubated for 10 min at room temperature. After 100 μl of methanol/acetone was added, incubated for 1 min at room temperature, and then dried. TRAP substrate solution comprising a tablet of pNPP (p-nitrophenylphosphate) dissolved in 20 ml of TRAP buffer (pH 5.2) was added into and incubated for 20-30 min at 37° C. 100 μl of TRAP substrate solution was transferred to a new 96-well plate in which 50 μl of 1N NaOH was contained. Finally, OD (optical density) value was measured at 405 nm. To extract mouse bone marrow cells, thighbone and shinbone of male C57BL/6 mouse at 3-4 weeks of age were aseptically enucleated and their soft tissues were eliminated. Both end of long bone was cut in extracted bone tissues and then bone marrow cells were collected by injecting α-MEM/10% FBS into bone marrow cavity at one end using a 26G injection syringe. Collected bone marrow cells were subjected to 5 ng/ml of M-CSF and incubated for 16 hrs. Unattached cells on plate bottom were harvested. […] To determine inhibitory effect of D-pinitol on osteoclastogenesis, osteoclast derived from bone marrow primary cells was analyzed using TRAP solution assay.

[7] = system: co-culture of osteoblast and bone marrow-derived osteoclast; test: Osteoclastogenesis in co-culture of osteoblast and bone marrow cells, TRAP staining; assay type: cell-based, mouse
Protocol: To prepare a primary osteoblast of mice, frontal bone and parietal bone of fetal mice at 1 day of age were aseptically enucleated. After washing enucleated bone tissue with PBS solution, it was subsequently treated with mixed-enzyme solution (0.2% collagenase and 0.1% dispase) 6 times at 20 min intervals. Cells having the property of osteoblast were harvested and then washed with culture solution. Washed cells were cultured in α-MEM containing 10% serum for 3 days and used as a primary osteoblast. Co-culture was carried out in a manner that 1.0×10^4 cells/200 μl of osteoblast and 1.0×10^5 cells of bone marrow cells were cultured on 96-well plate with vitamin D3 (10^−6M) and prostagrandin E2 (PGE2, 10^−8M) for 5 days. After culturing, TRAP staining was performed. Osteoblast was extracted from mouse skull and then co-cultured with hematopoietic stem cells of bone marrow in order to induce the differentiation of osteoclast. The effect of D-pinitol on osteoclastogenesis was investigated by treating cells with D-pinitol with a range of 0-50 mM during the differentiation-inducing process.

[8] = system: bone marrow-derived osteoclast; test: Osteoclast differentiation in respective stages of osteoclastogenesis; assay type: cell-based, mouse; settings: from 2 days after culture, not less than 25 mM
Protocol: To examine the effect of D-pinitol on osteoclast at each stage of culturing, D-pinitol was added to the culture media of osteoclast with various concentrations. D-pinitol-treated osteoclast was separated at each cultured time and then amount of differentiated osteoclast was analyzed using TRAP solution assay. To analyze the effect of D-pinitol on respective stages of differentiation of bone marrow-derived osteoclast, the differentiation state of osteoclast, which has been cultured in the presence of various concentration of D-pinitol, was estimated in a time-dependent course. […] It could be also understood that D-pinitol affects in the cell-fusion stage of the osteoclastogenesis.

[9] = system: bone marrow-derived osteoclast; test: Bone resorption-degradative potential of osteoclast on bone fragments (toluidine blue staining); assay type: cell-based, mouse
Protocol: To examine the effect of D-pinitol on degradative potential of osteoclast in the bone resorption process, fragment of tooth bone was added in 96-well plate and then bone marrow cells were cultured until 1.0×10^5 cells/200 μl. For the differentiation of osteoclast, 50 ng/ml of M-CSF and 200 ng/ml of sRANKL were added. D-pinitol was added to the media in a concentration-dependent manner and incubated for 4 days. Where the differentiation of osteoclast was observed after completing the culture, cells were removed in bone fragment and observed in microscope via 1% toluidine blue staining. To investigate the effect of D-pinitol on the bone resorption-degradative potential of osteoclast, cells were treated with D-pinitol in the range of 0-50 mM during the differentiation into osteoclast on bone fragments which were obtained from human teeth.

## COC1C(O)C(O)C(O)C(O)C1O [D-pinitol]
Raw264.7 cells [1]
  Raw264.7 cell cytotoxicity: not observed
[2]; 0-50 mM, M-CSF 50 ng/ml
  effect on CCK8 activity: no effect
[2]; not more than 50 mM
  influence on proliferation of hematopoietic stem cells: no influence
Raw264.7 cells [3]; Mus musculus, RAW264.7, 50 mM, multinucleate cell count by TRAP staining
  inhibition at 50000 µM: ~100%
Raw264.7 cells [3]; RankL 200 ng/ml, 4 days, increasing concentration up to 50 mM
  osteoclastogenesis (TRAP staining photographs): significantly impaired
Raw264.7 cells [3]; RankL 200 ng/ml, increasing concentration of D-pinitol
  multinucleate cell number: significantly decreased
Raw264.7 cells [4]
  inhibitory activity in TRAP solution assay versus counting multinucleate cell number: relatively weaker
[5]; 0-50 mM, RankL 200 ng/ml and M-CSF 50 ng/ml, 4 days
  number of TRAP-stained osteoclast: decreased in proportion to the concentration
[5]; Mus musculus, Osteoclast, 50 mM, bone marrow-derived monocyte, read-out: inhibition of osteoclastogenesis
  inhibition at 50000 µM: ~100%
[5]; TRAP staining count
  concentration from which a remarkable decrease of multinucleate cell number was observed: 25 mM
[6]
  inhibitory effect on differentiation of bone marrow-derived osteoclast: also observed
[7]; 0-50 mM, increasing concentration
  cell number of multinucleated osteoclast: significantly decreased
[7]; 50 mM
  osteoclastogenesis: clearly inhibited
[8]
  differentiation of bone marrow-derived osteoclast: remarkably inhibited
[9]; 0-50 mM, increasing concentration, bone fragments from human teeth
  bone resorption-degradative potential of osteoclast: remarkably decreased
[9]; not less than 25 mM
  bone resorption-degradative potential of osteoclast: dramatically decreased
